Laboratory results from patent publication US8618169B2, “Derivatives of N-phenylanthranilic acid and 2-benzimidazolone as potassium channel and/or neuron activity modulators” (Ramot at Tel-Aviv University Ltd., priority 2002, dated 2013).
Where “and” joins values, the source holds several entries; their conditions need not be identical. Equal values may be shown once.

How the values were obtained:
KCNQ1/KCNE1 = target: T1, KCNQ1/KCNE1 (Homo sapiens, UniProt P51787); assay: KCNQ1/KCNE1 (IKS) current amplitude; type: cell-based; details: 50 μM, test potentials −50 to 0 mV, data not shown
T1 construct: expressed in transfected cells; host or cells: Xenopus oocytes (stated for Compound 6)
Protocol: (§1) Briefly, two-electrode voltage-clamp measurements were performed 3-5 days following cRNA microinjection into oocytes. Oocytes were bathed in a modified ND96 solution containing (in mM): 96 NaCl, 2 KCl, 1 MgCl2, 0.1 CaCl2 and 5 HEPES titrated to pH=7.4 with NaOH. Whole-cell currents were recorded at room temperature (20° C.-22° C.) using a GeneClamp 500 amplifier (Axon Instruments, Foster City, Calif., USA). […] Current signals were filtered at 0.5 kHz and digitized at 2 kHz.
(§2) The current amplitude of the various channels was measured from a −80 mV holding potential.

homomeric KCNQ2 channels = target: T2, homomeric KCNQ2 channels (Homo sapiens, UniProt O43526); assay: Homomeric KCNQ2 channels expressed in CHO cells, patch-clamp; type: cell-based; details: 50 μM
T2 construct: expressed in transfected cells; host or cells: CHO cells

KCNQ1 = target: T3, KCNQ1 (Homo sapiens, UniProt P51787); assay: KCNQ1 current amplitude in Xenopus oocytes; type: cell-based; details: 50 μM, test potentials −50 to 0 mV, data not shown
T3 construct: expressed in transfected cells; host or cells: Xenopus oocytes (cRNA microinjection)
Protocol: as §1
(§3) Data are expressed as mean±SEM of 5-8 separate experiments.
as §2

M-current = target: T4, M-current (Rattus norvegicus, UniProt O88943+O88944); assay: Native M-current of cultured rat cortical neurons, voltage-clamp; type: cell-based
T4 construct: the native M-current from pyramidal-like neurons was recorded; endogenous in cells; host or cells: primary cortical neurons from Sprague Dawley rat embryos (E18)

KCNQ2/Q3 = KCNQ2/Q3 (Homo sapiens, UniProt O43525+O43526); assay: KCNQ2/Q3 current in Xenopus oocytes, two-electrode voltage-clamp; type: cell-based; design: expressed in transfected cells; host or cells: Xenopus oocytes (cRNA microinjection); details: for increase of KCNQ2/Q3 currents: at −40 mV
Protocol: Current measurements in Xenopus oocytes were performed as described in the art [Peretz et al. J. Physiol 545:751-766 (2002)]. Briefly, two-electrode voltage-clamp measurements were performed 3-5 days following cRNA microinjection into oocytes. Oocytes were bathed in a modified ND96 solution containing (in mM): 96 NaCl, 2 KCl, 1 MgCl2, 0.1 CaCl2 and 5 HEPES titrated to pH=7.4 with NaOH. Whole-cell currents were recorded at room temperature (20° C.-22° C.) using a GeneClamp 500 amplifier (Axon Instruments, Foster City, Calif., USA). Glass microelectrodes (A-M Systems, Inc., Carlsborg, Wis., USA) were filled with 3M KCl and had tip resistances of 0.5-1.5 MΩ. Stimulation of the preparation, data acquisition and analyses were performed using the pCLAMP 6.02 software (Axon Instruments, Foster City, Calif., USA) and a 586 personal computer Pentium 4 interfaced with a Digidata 1200 interface (Axon Instruments, Foster City, Calif., USA). Current signals were filtered at 0.5 kHz and digitized at 2 kHz.
Data analysis was performed using the Clampfit program (pClamp 8.1, Axon Instruments, Foster City, Calif., USA), Microsoft Excel 98 (Microsoft Corp., Redmond, Wash., USA), Axograph 4.6 (Axon Instruments, Foster City, Calif., USA) and Prism 2.0 (GraphPad, San Diego, Calif., USA). Leak subtraction was performed off-line, using the Clampfit program of the pClamp 8.1 software. To analyze the KCNQ2/3 channel deactivation, a single exponential fit was applied to the tail currents. Chord conductance (G) was calculated by using the equation: G=I/(V−Vrev) where I corresponds to the current amplitude measured at the end of the pulse and Vrev, the calculated reversal potential assumed to be −90 mV in CHO cells and −98 mV in Xenopus oocytes. G was estimated at various test voltages V and then, normalized to a maximal conductance value, Gmax, calculated at +40 mV. Activation curves were fitted by a Boltzmann distribution: G/Gmax=1/{1+exp[(V50−V)/s]} where V50 is the voltage at which the current is half-activated and s is the slope factor. All data were expressed as mean±SEM. Statistically significant differences were assessed by Student's t-test.
as §3

rat cortical neurons = assay: Evoked and spontaneous action potential activity of cultured rat cortical neurons, current-clamp; type: cell-based
[1] = system: electroshock-induced seizures; assay: Maximal electroshock seizure (MES) test in ICR mice; type: in vivo
Protocol: All animals were treated in accordance with the Guide for the Care and Use of Laboratory Animals as adopted and promulgated by the U.S. National Institutes of Health. The procedures followed for experimentation and maintenance of the animals were approved by the animal research ethics committee of Tel Aviv University and in accordance with the Guide for the Care and Use of Laboratory Animals (1996. National Academy of Sciences, Washington D.C). […] electroshock were induced in adult mice by means of two transcorneal electrodes delivering an alternative current of 50 mA at 60 Hz for 0.2 sec using rodent shocker (Hugo Sachs Electronik, type 221). […] The tested compounds were dissolved in 0.9% saline were administered intraperitoneally either 30 minutes or 2 hours before the electroshock was performed. Animals failing to show tonic hind limb extension were scored as protected and were expressed in percentage.
Five groups of 10 ICR mice each received intraperitoneally saline (control) or meclofenamic acid (Compound 1) at 25 mg/kg, 50 mg/kg, 100 mg/kg and 150 mg/kg and were subjected 30 minutes later to an electric shock (50 mA, 0.2 second duration, 60 Hz).
In view of the strong depressing activity of Compound 6 on cortical neurons, the anticonvulsant activity in mice subjected to seizures produced by electroshock was examined, using the MES test described above. Compound 6 dissolved in saline was injected intraperitoneally (in a volume of 10 ml/kg) at doses ranging from 6 mg/kg to 20 mg/kg to ICR adult mice and its anticonvulsant activity was compared with saline. Twenty minutes after drug administration, seizures were produced by electroshock (50 mA, 0.2 second duration, 60 Hz).

KCNQ2/3 channels = target: T5, KCNQ2/3 channels (Homo sapiens, UniProt O43525+O43526); assay: KCNQ2/3 current in transfected CHO cells, whole-cell patch-clamp; type: cell-based
T5 construct: expressed in transfected cells; host or cells: CHO cells

[2] = 100 μM, prepulse −20 mV, tail −60 mV

Cc1ccc(Cl)c(Nc2ccccc2C(=O)O)c1Cl [Compound 1, Meclofenamic acid]
effect on heteromeric KCNQ1/KCNE1 currents (KCNQ1/KCNE1): not enhanced
leftward shift in the activation curve of KCNQ2 channels (homomeric KCNQ2 channels; CHO cells): −26.9 mV
increase of KCNQ2 current amplitude (homomeric KCNQ2 channels; stepped from −85 mV to −40 mV): 240±26%
time constant of deactivation τdeact of KCNQ2 with compound (homomeric KCNQ2 channels; control 92.6±3.9 msec): 152.7 ± 4.9 ms
V50 of KCNQ2 activation with compound (homomeric KCNQ2 channels; control −23.6±2.2 mV): −50.5±1.4 mV
effect on homomeric KCNQ1 currents (KCNQ1): not enhanced
enhancement of the linopirdine-sensitive outward current (M-current; 10 μM, step from −80 mV to −40 mV): 465±134 percents of control
leftward shift in the voltage-dependence of KCNQ2/Q3 current activation (KCNQ2/Q3; 25 μM, Xenopus oocytes): −15.9 mV
V50 of KCNQ2/Q3 current activation with compound (KCNQ2/Q3; 25 μM, Xenopus oocytes, control −28.6±2.9 mV): −44.5±3.1 mV
increase of KCNQ2/Q3 currents (KCNQ2/Q3; 25 μM): 1.75 fold
increase in KCNQ2/Q3 current amplitude (KCNQ2/Q3; 25 μM, oocyte membrane stepped from −80 mV to −40 mV): 53±8%
oocyte resting membrane potential after compound (KCNQ2/Q3; increasing concentrations, from −56±2 mV): −72±3 mV
EC50 (KCNQ2/Q3; increasing concentrations, read-out: EC50 of hyperpolarization of the oocyte resting membrane potential): 11.7 ± 5.2 µM
effect on spontaneous spiking activity (rat cortical neurons; 10 μM): completely but reversibly inhibited
number of evoked action potentials with compound (rat cortical neurons; 10 μM, 100 pA depolarizing current for 800 mseconds, control 20±1): 1±1
effect on evoked potentials (rat cortical neurons; 5-20 μM): reversibly inhibited
% Protection ([1]; 50 mg/kg i.p., 30 minutes before electroshock): 17% and 17 (6) %
% Protection ([1]; 100 mg/kg i.p., 30 minutes before electroshock): 75 (5) %
% Protection ([1]; 100 mg/kg i.p., 2 hours before electroshock): 25 (4) %
adverse effect in mice ([1]; 150 mg/kg intraperitoneally): sedation
% Protection ([1]; 200 mg/kg i.p., 30 minutes before electroshock): toxic
% Protection ([1]; 200 mg/kg i.p., 2 hours before electroshock): toxic
mice protected from electroshock ([1]; Example 9: 50 mg/kg intraperitoneally, 30 minutes before shock): 50%
protection from electroshock seizures ([1]; Example 9: 100 mg/kg intraperitoneally, 30 minutes before shock): fully prevented seizures
toxic effects at high doses ([1]; mouse, in vivo): pro-convulsive toxic effects and hyperactivity
V50 of KCNQ2/3 current activation with compound (KCNQ2/3 channels; 100 μM, CHO cells): −42.34±2.08 mV
leftward shift in the voltage-dependence of KCNQ2/3 current activation (KCNQ2/3 channels; 100 μM, CHO cells): 22.7 mV
slope parameter s of the Boltzmann fitting curve (KCNQ2/3 channels; 100 μM, CHO cells): −10.50±0.93 mV/e fold
increase of the time constant for deactivation (KCNQ2/3 channels; [2]): about 2 fold
time constant for deactivation τdeact with compound (KCNQ2/3 channels; [2]): 167.5 ± 11.6 ms
effect on KCNQ2/3 activation kinetics (KCNQ2/3 channels; CHO cells): did not affect
voltage threshold of KCNQ2/3 current activation upon exposure (KCNQ2/3 channels; CHO cells, control −50 mV): about −60 mV
increase of KCNQ2/3 current amplitude (KCNQ2/3 channels; at −30 mV, CHO cells): > 2.5 fold
increase of KCNQ2/3 current amplitude (KCNQ2/3 channels; at −40 mV, CHO cells): > 5 fold
increase of KCNQ2/3 current amplitude (KCNQ2/3 channels; at −50 mV, CHO cells): more than 10 fold
increase in KCNQ2/3 current amplitude (KCNQ2/3 channels; potentials around −60/−50 mV): more than 10 fold
increase of the current amplitude (KCNQ2/3 channels; train protocol, cells stepped to −20 mV): up to 72%
KCNQ2/3 current amplitude with compound (KCNQ2/3 channels; train protocol, stepped to −20 mV, control 844±130 pA): 1451±164 pA

O=C(Cc1ccccc1Nc1c(Cl)cccc1Cl)NCCOCCO [Compound 6]
negative shift in the threshold of M-current activation (M-current; cortical neurons, from −50 mV to −70 mV): approximately 20 mV
increase of KCNQ2/Q3 currents (KCNQ2/Q3; 25 μM): 1.95 fold
effect on evoked and spontaneous cortical neuron activity (rat cortical neurons): depress
effect on spontaneous action potentials (rat cortical neurons; 5 μM-20 μM, within less than 2 minutes): profound depression of spontaneous action potentials
effect on number of evoked action potentials (rat cortical neurons; 10 μM): reduced drastically and reversibly
ED50 ([1]; Mus musculus, intraperitoneal 6-20 mg/kg, twenty minutes before electroshock, read-out: ED50 of protective effect against seizures): 8.7 mg/kg
leftward shift in the voltage-dependence of KCNQ2/3 activation (KCNQ2/3 channels; 25 μM, CHO cells): about 13 mV
V50 of KCNQ2/3 activation with compound (KCNQ2/3 channels; 25 μM, CHO cells, control −30.9±4.1 mV): −43.45±2.3 mV
increase of the current amplitude (KCNQ2/3 channels; 25 μM, train protocol, stepped to −50 mV): up to 220%
effect on deactivation kinetics of KCNQ2/3 channels (KCNQ2/3 channels; CHO cells): slowed down
EC50 (KCNQ2/3 channels; at −50 mV, CHO cells, read-out: EC50 of concentration-dependent current increase): 7 ± 1 µM
